Results: patent US20210134398A1, “Combinatorial Chemistry Computational System and Enhanced Selection Method” (Southern Methodist University, priority 2019, published 2021)
Entries after “also recorded” stand apart in the source; their conditions may differ. Where two headings read alike, the source gives them in different places. One block for each compound: values may come before it.

Key:
[1] = system: P-gp overexpressing prostate cancer cell line, DU145TXR; assay: MTT cell viability assay, resensitization to paclitaxel; type: cell-based, human; details: for Fold vs PTX + 29: vs paclitaxel + parental compound 29; for Fold vs PTX (fold increased sensitivity): vs paclitaxel alone; for Resensitization of DU145TXR to paclitaxel / MDR reversal (in words): 3 to 10 μM inhibitor
Text: The Group 1 ChemGen/docking routine produced variants of P-gp inhibitor 29 resensitize a multidrug resistant, P-gp overexpressing prostate cancer cell line to paclitaxel. The mitochondrial reduction potential of cells is often used as an indicator for cell viability using MTT assays^4. Using these assays it was observed that the five Group 1 derivatives of 29 predicted through the ChemGen/docking routine and synthesized here, 216, 227, 231, 541 and 551, re-sensitized the P-gp overexpressing prostate cancer cell line, DU145TXR^33, to the chemotherapeutic, paclitaxel (FIG. 12, showing results of assays at concentrations of 3 μM, 5 μM, 7 μM, and 10 μM).
Cytotoxicity of the chemotherapeutic, paclitaxel (PTX) to P-gp overexpressing prostate cancer cells, DU145TXR, was determined in the absence and presence of the ChemGen designed 29-variants, 216, 227, 231, 541 and 551. For each experimental compound IC50 values of PTX alone or in the presence of inhibitors, fold improvement of PTX sensitivity in the presence of inhibitor, and fold improvement of PTX sensitivity by variants compared to parental compound 29 are given.
Effects of Group 2 variants on the paclitaxel sensitivity of P-glycoprotein overexpressing prostate cancer cells, DU145TXR. MTT assays were again used to assess the efficacy of the new structural 29-variants on sensitizing the chemotherapy-resistant prostate cancer cell line, DU145TXR, to paclitaxel, at concentrations of 3 μM, 5 μM, 7 μM, and 10 μM as shown in FIG. 15 and Table 4.
MTT cell viability assay. Cells were trypsinized from monolayers and seeded with 3000 cells in 150 μL of complete medium in a 96 well plate. After 24 hours, cells were treated for 48 hours with paclitaxel (Acros Organics, NJ) and/or P-gp inhibitory compounds dissolved in DMSO, or DMSO controls. All additions were diluted into complete medium. After 48 hours of treatment, MTT assays were performed as described^41 using 5 mg/mL of MTT (Acros Organics, NJ) solution prepared in PBS (137 mM NaCl, 2.7 mM KCl, 10 mM Na2HPO4, 1.8 mM KH2PO4, pH 7.4). After 4 hours of incubation with MTT, the media was removed and the formazan crystals were dissolved in 100 μL of DMSO. The absorbance at 570 nm was then measured using a BioTek Cytation 5 imaging multi-mode reader (Bio-Tek, Winooski, Vt.). Percent viability was calculated using DMSO treated cells as representative for 100% viability, according to Equation 1. Background absorbance was determined using MTT and complete medium without cells and subtracted from all the test values. Equation 1:
The results were plotted as the mean with standard deviation (SD) of eight replicates per concentration from at least two independent experiments with n=8. The graphical representations and IC50 values were determined using four parameter variable slope non-linear regression, using the following equation: Y=bottom+(top-bottom)/(1+10^((log IC50−X)*Hill Slope) (GraphPad Prism™, La Jolla Calif., USA, Version 6.05). The reported “fold sensitization” was calculated as follows, per Equation 2: […]

[2] = biological target: T1, Cysteineless Mouse MDR3 P-glycoprotein (Mus musculus, UniProt P21447, C1070A/C1121A/C1223A/C133A/C427A/C638A/C669A/C713A/C952A); assay: ATPase activity assay (basal and verapamil-stimulated), purified P-gp in mixed micelles; type: biochemical; details: for Effect on stimulated ATPase / Stimulated ATPase: in the presence of verapamil; for Stimulated ATPase / Basal ATPase: ± standard deviation; for Effect on basal ATPase / Stimulation of basal ATPase / Basal ATPase: no added transport substrate
T1 construct: made in house; host or cells: Pichia pastoris
T1 sequence (P21447 whole entry C133A/C427A/C638A/C669A/C713A/C952A/C1070A/C1121A/C1223A): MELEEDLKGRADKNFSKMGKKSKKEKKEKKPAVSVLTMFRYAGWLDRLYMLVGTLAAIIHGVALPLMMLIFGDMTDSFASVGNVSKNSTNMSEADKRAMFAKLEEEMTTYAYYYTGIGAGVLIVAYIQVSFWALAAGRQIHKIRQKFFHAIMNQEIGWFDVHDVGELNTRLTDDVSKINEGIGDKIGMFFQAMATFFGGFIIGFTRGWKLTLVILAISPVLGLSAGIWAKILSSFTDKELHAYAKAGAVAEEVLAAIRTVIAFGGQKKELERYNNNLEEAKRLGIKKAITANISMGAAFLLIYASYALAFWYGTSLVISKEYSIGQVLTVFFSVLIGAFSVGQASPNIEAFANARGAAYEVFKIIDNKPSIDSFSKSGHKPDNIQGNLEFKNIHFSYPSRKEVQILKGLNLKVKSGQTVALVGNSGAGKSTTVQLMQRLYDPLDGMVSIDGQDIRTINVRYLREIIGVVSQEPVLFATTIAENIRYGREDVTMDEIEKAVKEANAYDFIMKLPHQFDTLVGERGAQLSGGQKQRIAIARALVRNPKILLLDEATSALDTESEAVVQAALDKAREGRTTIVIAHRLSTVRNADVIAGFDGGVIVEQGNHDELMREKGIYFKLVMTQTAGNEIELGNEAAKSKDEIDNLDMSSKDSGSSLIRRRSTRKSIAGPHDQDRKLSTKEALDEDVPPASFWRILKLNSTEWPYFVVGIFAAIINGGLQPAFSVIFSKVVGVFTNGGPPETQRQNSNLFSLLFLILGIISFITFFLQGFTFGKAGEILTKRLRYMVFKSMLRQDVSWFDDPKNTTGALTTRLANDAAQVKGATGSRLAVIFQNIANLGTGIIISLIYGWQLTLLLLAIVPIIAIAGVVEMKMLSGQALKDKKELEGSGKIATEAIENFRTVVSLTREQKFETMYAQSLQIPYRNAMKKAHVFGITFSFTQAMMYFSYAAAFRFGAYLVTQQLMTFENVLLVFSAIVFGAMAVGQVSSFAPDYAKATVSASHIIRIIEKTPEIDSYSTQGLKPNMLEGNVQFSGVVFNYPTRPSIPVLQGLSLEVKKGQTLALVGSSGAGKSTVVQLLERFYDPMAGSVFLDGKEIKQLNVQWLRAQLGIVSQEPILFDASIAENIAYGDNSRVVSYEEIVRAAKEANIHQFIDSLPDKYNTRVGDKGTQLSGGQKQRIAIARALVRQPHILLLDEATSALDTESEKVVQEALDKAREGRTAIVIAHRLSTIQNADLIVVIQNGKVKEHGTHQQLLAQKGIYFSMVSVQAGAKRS
Experimental: Evaluation of mode of inhibition of P-glycoprotein by Group 1 and Group 2 variants of compound 29. To assess the mode of inhibition of P-gp by the novel variants of P-gp inhibitor 29, ATP hydrolysis by P-gp was evaluated in the presence or absence of the variants. […] Murine P-gp (MDR3) expressed in Pichia pastoris that had all naturally occurring cysteines replaced with alanine, was used^45, 46. It is widely assumed that the ATP hydrolytic rate of P-gp is stimulated in the presence of transport substrates when compared to ATP hydrolysis in the absence of transport substrates. Assays comparing these rates can therefore be useful not only in identifying inhibitors of P-gp catalyzed ATP hydrolysis, but also to potentially infer whether a compound might be a transport substrate if basal ATPase rates are stimulated by the addition of a compound.
P-glycoprotein Purification. Cysteine-less MDR3 and the human normal MDR1 P-glycoprotein was recombinantly expressed in the yeast Pichia pastoris essentially as in^45, 46 and used for assaying ATP hydrolysis and ATP binding to the protein in the presence of the 29-variants. Purification of the protein was performed as described^49 with small modifications resulting in highly enriched P-gp in mixed micelles containing dodecyl maltoside (DDM) and lysophosphatidyl choline^26.
ATPase Activity Assays. ATP hydrolysis activity was measured using a coupled enzyme assay^72 as modified in reference^26.

[3] = biological target: P-gp (P-gp over-expressing cell line, DU145TXR) (Homo sapiens, UniProt P08183); assay: Cellular accumulation of experimental compounds by LC-MS/MS with and without tariquidar; details: for Transport substrate for P-gp: not told
P-gp (P-gp over-expressing cell line, DU145TXR), sequence (P08183 whole entry): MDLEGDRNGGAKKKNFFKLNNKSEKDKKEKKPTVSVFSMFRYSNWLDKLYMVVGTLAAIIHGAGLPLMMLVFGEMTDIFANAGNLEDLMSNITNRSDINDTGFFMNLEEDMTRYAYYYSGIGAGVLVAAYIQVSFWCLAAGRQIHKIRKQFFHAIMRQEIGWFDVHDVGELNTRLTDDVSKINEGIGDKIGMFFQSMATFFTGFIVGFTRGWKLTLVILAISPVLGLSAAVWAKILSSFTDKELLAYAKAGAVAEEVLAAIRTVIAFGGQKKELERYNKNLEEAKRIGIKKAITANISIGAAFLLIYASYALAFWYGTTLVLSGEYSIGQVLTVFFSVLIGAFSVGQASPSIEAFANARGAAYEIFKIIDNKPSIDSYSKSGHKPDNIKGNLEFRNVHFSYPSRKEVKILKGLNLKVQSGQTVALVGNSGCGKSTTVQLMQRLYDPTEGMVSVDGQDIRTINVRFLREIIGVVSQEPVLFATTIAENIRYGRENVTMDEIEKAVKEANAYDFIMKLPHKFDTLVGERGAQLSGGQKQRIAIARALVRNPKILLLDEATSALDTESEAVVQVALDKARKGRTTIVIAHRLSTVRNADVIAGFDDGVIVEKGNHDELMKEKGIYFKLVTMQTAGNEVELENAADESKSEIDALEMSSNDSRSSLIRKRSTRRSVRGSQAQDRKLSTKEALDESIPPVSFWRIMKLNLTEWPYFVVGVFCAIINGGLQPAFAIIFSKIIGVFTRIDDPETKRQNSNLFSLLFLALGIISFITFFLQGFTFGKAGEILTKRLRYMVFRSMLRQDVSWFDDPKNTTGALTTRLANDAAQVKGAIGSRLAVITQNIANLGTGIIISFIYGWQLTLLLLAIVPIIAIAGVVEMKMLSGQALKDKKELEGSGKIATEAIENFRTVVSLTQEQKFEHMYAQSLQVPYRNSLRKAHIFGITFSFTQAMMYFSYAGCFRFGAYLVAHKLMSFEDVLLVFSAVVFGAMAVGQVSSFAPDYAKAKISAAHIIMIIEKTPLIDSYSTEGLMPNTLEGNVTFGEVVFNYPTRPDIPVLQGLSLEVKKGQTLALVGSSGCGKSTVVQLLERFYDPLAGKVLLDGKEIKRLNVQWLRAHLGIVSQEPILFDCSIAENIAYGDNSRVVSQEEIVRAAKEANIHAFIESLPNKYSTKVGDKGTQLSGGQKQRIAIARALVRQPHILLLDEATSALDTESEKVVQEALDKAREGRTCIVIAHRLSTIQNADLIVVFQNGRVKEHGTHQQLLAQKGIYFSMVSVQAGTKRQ
Experimental: Stimulation of basal ATPase by 29-variants was used as an indicator that a compound may be a P-gp transport substrate. Effects on stimulated P-gp ATPase activity indicated whether a compound directly interfered with ATP usage by the protein (***, p<0.001; **, p<0.01; *, p<0.1; NS, not significant). Quantitative cellular accumulation of 29-variants was performed using LC-MS/MS and is presented as a ratio of the cellular amounts of 29-variants in the presence of P-gp inhibitor, tariquidar, divided by amounts accumulated in its absence. […] Binding of an ATP analog, SL-ATP, to P-gp was used to determine whether ATP binding to P-gp was affected by the 29-variants. Values +/−standard deviations are shown for at least three different P-gp preparations and three independent SL-ATP titration experiments. The values for SL-ATP binding in the presence of 29 were taken directly from Brewer et al. (2014).
Intracellular accumulation of compound 29 variants. Cell accumulation assays for each of the 29 variants were performed as in reference^28 to more directly assess whether the compounds were indeed transport substrates for P-gp.
Cellular Accumulation Assays for Experimental P-gp Inhibitors. Cells used (DU145TXR), cell culturing, cell exposure to compounds, cellular handling and extractions were performed as described in^28. LC-MS/MS methods were performed as described in^71 and as modified in^28.

Compound: Cc1cc(C)c(-c2cc(NC(=O)CSCC(=O)NC34CC5CC(CC(C5)C3)C4)n(-c3ccccc3)n2)cc1C [29-278, 2-({[(adamantan-1-yl)carbamoyl]methyl}sulfanyl)-N-[1-phenyl-3-(2,4,5-trimethylphenyl)-1H-pyrazol-5-yl]acetamide]
- Resensitization of DU145TXR to paclitaxel / MDR reversal (in words) ([1]; listed as 278): affected MDR relatively weakly
- Effect on stimulated ATPase ([2]; listed as 278): inhibited verapamil-stimulated ATPase activity
- Effect on stimulated ATPase ([2]; listed as SMU29-278): inhibitor
- Stimulated ATPase [2]: 41 ± 7 % of DMSO
- Effect on basal ATPase ([2]; listed as 278): inhibited
- Effect on basal ATPase ([2]; listed as SMU29-278): inhibitor
- Basal ATPase [2]: 78 ± 4 % of DMSO
- Cellular accumulation: ratio of plus Tariquidar over no Tariquidar ([3]; human): 1.0

Compound: Cc1cc(C)c(-c2cc(NC(=O)CSc3nnc4c(n3)[nH]c3ccccc34)n(-c3ccccc3)n2)cc1C [29-541, 2-((5H-[1,2,4]triazino[5,6-b]indol-3-yl)thio)-N-(1-phenyl-3-(2,4,5-trimethylphenyl)-1H-pyrazol-5-yl)acetamide]
- Resensitization of DU145TXR to paclitaxel / MDR reversal (in words) ([1]; listed as 541): re-sensitized; also recorded: more effective than 29 at all concentrations tested
- Effect on stimulated ATPase ([2]; listed as 541): inhibited activity similar to parental compound 29; also recorded: inhibited verapamil-stimulated ATPase activity
- Effect on stimulated ATPase ([2]; listed as SMU29-541): inhibitor
- Stimulated ATPase [2]: 68 ± 7 % of DMSO
- Effect on basal ATPase ([2]; listed as 541): did not significantly affect; also recorded: did not activate
- Effect on basal ATPase ([2]; listed as SMU29-541): none
- Basal ATPase [2]: 101 ± 12 % of DMSO
- Cellular accumulation: ratio of plus Tariquidar over no Tariquidar ([3]; human): 1.0
- Transport substrate for P-gp ([3]; human): none of the Group 1 compounds functions as a transport substrate of P-gp
- Transport substrate for P-gp [3]: no

Continued, in another order:

- Effect on stimulated ATPase ([2]; listed as 238): about two-fold
- Effect on stimulated ATPase ([2]; listed as SMU29-238): stimulator
- Stimulated ATPase [2]: 194 ± 22 % of DMSO
- Effect on basal ATPase [2]: stimulator
- Stimulation of basal ATPase [2]: ~10 fold
- Basal ATPase [2]: 1143 ± 46 % of DMSO
- Intracellular accumulation in absence vs presence of tariquidar (in words) [3]: very large and significant increase
- Cellular accumulation: ratio of plus Tariquidar over no Tariquidar ([3]; human): 1.9
Compound: COc1cc(NC(=O)CSCC(=O)Nc2cc(-c3cc(C)c(C)cc3C)nn2-c2ccccc2)cc(OC)c1OC [29-238, N-[1-phenyl-3-(2,4,5-trimethylphenyl)-1H-pyrazol-5-yl]-2-({[(3,4,5-trimethoxyphenyl)carbamoyl]methyl}sulfanyl)acetamide]
- Fold vs PTX + 29 ([1]; 3 μM inhibitor): 3.4 fold
- Fold vs PTX + 29 ([1]; 5 μM inhibitor): around 100 fold
- Fold vs PTX (fold increased sensitivity) ([1]; 5 μM inhibitor): about a thousand-fold
- Fold vs PTX + 29 ([1]; 7 μM inhibitor): around 100 fold
- Fold vs PTX + 29 ([1]; 10 μM inhibitor): 300 fold
- Resensitization of DU145TXR to paclitaxel / MDR reversal (in words) ([1]; listed as 238): increased paclitaxel toxicities to the greatest extents; also recorded: vastly outperformed compounds 278, 280 and 286; also recorded: strongest reversal of MDR

- Effect on stimulated ATPase ([2]; listed as SMU29-255): none
- Stimulated ATPase [2]: 123 ± 15 % of DMSO
- Effect on basal ATPase [2]: stimulator
- Stimulation of basal ATPase [2]: ~3 fold
- Basal ATPase [2]: 355 ± 7 % of DMSO
- Cellular accumulation: ratio of plus Tariquidar over no Tariquidar ([3]; human): 1.2
Compound: Cc1cc(C)c(-c2cc(NC(=O)CSCC(=O)Nc3ccc4ncsc4c3)n(-c3ccccc3)n2)cc1C [29-255, 2-({[(1,3-benzothiazol-6-yl)carbamoyl]methyl}sulfanyl)-N-[1-phenyl-3-(2,4,5 trimethylphenyl)-1H-pyrazol-5-yl]acetamide]
- Fold vs PTX + 29 ([1]; 3 μM inhibitor): comparable to 238 at 3 μM
- Fold vs PTX (fold increased sensitivity) ([1]; 7 μM inhibitor): about a thousand-fold
- Resensitization of DU145TXR to paclitaxel / MDR reversal (in words) ([1]; listed as 255): increased paclitaxel toxicities to the greatest extents; also recorded: vastly outperformed compounds 278, 280 and 286; also recorded: reversed MDR
- Intracellular accumulation in absence vs presence of tariquidar (in words) [3]: more modest, but statistically significant increases

- Effect on stimulated ATPase ([2]; listed as SMU29-286): none
- Stimulated ATPase [2]: 98 ± 2 % of DMSO
- Effect on basal ATPase ([2]; listed as SMU29-286): none
- Basal ATPase [2]: 143 ± 32 % of DMSO
- Cellular accumulation: ratio of plus Tariquidar over no Tariquidar [3]: 1.3
Compound: Cc1cc(C)c(-c2cc(NC(=O)CSCC(=O)NCc3ccc(F)cc3)n(-c3ccccc3)n2)cc1C [29-286]
- Resensitization of DU145TXR to paclitaxel / MDR reversal (in words) ([1]; listed as 286): little effect
- Effect on stimulated ATPase ([2]; listed as 286): no significant effect; also recorded: little effect
- Effect on basal ATPase ([2]; listed as 286): only marginally or with no statistical significance
- Intracellular accumulation in absence vs presence of tariquidar (in words) [3]: more modest, but statistically significant increases
